Data from patent US6245758A, “Methods of use for peroxynitrite decomposition catalysts, pharmaceutical compositions therefor” (priority 1996, dated 2001).

Assays:
[1] = Stopped-flow kinetic analysis of catalytic decomposition of peroxynitrite by metal complexes; settings: pH = 7.4, 22° C.
Protocol: To screen metal complexes for peroxynitrite decomposition catalytic activity of the present invention, peroxynitrite is prepared and isolated as its sodium salt by the reaction of acidic hydrogen peroxide with sodium nitrite followed by rapid quenching with NaOH as set out by Halfpenny and Robinson, in J. Chem. So., 1952, 928-938. Peroxynitrite has an absorbance maximum at 302 nm with an extinction coefficient of 1670 M^-1 cm^-1. Therefore, it is possible to directly observe the decomposition of peroxynitrite by stop-flow spectrophotometric analysis by monitoring the decomposition of the absorbance at 302 nm. That is, such observation of the decomposition of peroxynitrite at a rate accelerated over the natural decomposition rate with the addition of the metal complex identifies a compound of the present invention.
Kinetic measurements were made on an OLIS Rapid Scanning Stopped-Flow Spectrometer (On-Line Instrument Systems Inc., Bogart, Ga.)) using the OLISRSM-1000 Operating system for data acquisition and manipulation.
Thus, in a typical experiment the natural background decomposition rate of sodium peroxynitrite was determined as follows. A 24 mM stock solution of sodium peroxynitrite in 50 mM NaOH is load into the small volume syringe and 100 mM potassium phosphate pH=7.4 is charged into the large volume syringe of the stopped-flow spectrophotometer. All stopped -flow measurements were made at 22 ° C. Injection of the solutions into the sample compartment results in ~25 fold dilution of the stock sodium peroxynitrite. […] To test for catalytic peroxynitrite decomposition activity, the metal complex was dissolved in 100 mM potassium phosphate buffer pH=7.4 and loaded into the large syringe and the decomposition of peroxynitrite was monitored as described above. The catalytic rate constant (kcat M-1 sec^-1) for the complexes tested was determined by varying the complex concentration and plotting kobs vs [complex] Table 1. The kobs were obtained from averages of three stopped flow analysis at each catalyst concentration.

[2] = system: human aortic endothelial cells; assay: Endothelial cell injury assay (51Cr release), neutrophil-mediated; assay type: cell-based; settings: 2 h; TNF/C5a-activated neutrophils; FIG. 7
Protocol: Peroxynitrite catalyst, Fe(TMPyP), was added to neutrophils in the cell injury assay immediately before activation by TNF/C5a. After 2 h, the amount of specific cell injury was assessed by the amount of radiolabel released into the medium. Values represent the average of three replicas +/-SEM. *p<0.01 vs. 0 uM control by Dunnett's t Test.
[…]: Human recombinant tumor necrosis factor-alpha (TNF-a) was obtained from Genzyme Corporation, Cambridge, MA. Human recombinant complement C5a and L-arginine (L-arg) was purchased from Sigma Chemical Company, St. Louis, Mo. Authentic peroxynitrite in 50 mM NaOH was prepared as described above.
Preparation of Neutrophils: Human neutrophils were isolated from peripheral blood of healthy donors (Look, D. C., Rapp, S. R., Keller, B. T., and Holtzman, M. J. Am. J. Physiol., 263, L79-L87 [1992]). […]
Endothelial Cell Injury Assays: The cytotoxic effects of stimulated neutrophils or peroxynitrite on endothelial cells was determined using a ^51 Cr-release assay as described by Moldow (Moldow et. al. Methods Enzymol., 105, 378-385, [1984]). […]
^51 Cr release was determined by aspiration of the supernatant from each well (soluble fraction). […] Both fractions were analyzed by gamma scintillation spectrometry. Results were expressed as percent ^51 Cr release as follows: % release=cpm (soluble+nonadherent/total cpm per well)×100. […]

[3] = system: carrageenan-induced paw edema; assay: Carrageenan-induced paw edema; assay type: in vivo, rat
Text: Carrageenan-induced paw edema. The effects of peroxynitrite catalysts in vivo were initially tested on the carrageenan-induced paw edema. The choice of using this in vivo model of inflammation was based on the knowledge that 1) the inflammatory response is blocked by NOS inhibitors and 2) by superoxide dismutase (SOD). This indicates the participation of both NO and of O2-. Male Sprague Dawley rats were purchased from Harlan Sprague-Dawley (Indianapolis, Ind.). Male Sprague Dawley rats (175-200 g) received a subplantar injection in the right hind paw of carrageenan (0.1 ml of a 1% suspension in 0.85% saline). Paw volume was measured by a plethysmometer immediately before the injection of carrageenan and then at hourly intervals from 1 to 6 h. Edema was expressed as the increase in paw volume (in ml) measured after carrageenan injection compared to the pre-injection value for individual animals.

[4] = system: rat jejunum; assay: Histological examination of jejunal tissues after LPS; assay type: in vivo; settings: 30 mg/kg i.v.
[5] = 3 mg/kg i.v., 1 h post carrageenan
[6] = 3 mg/kg i.v., 2 h post carrageenan
[7] = 3 mg/kg i.v., 3 h post carrageenan
[8] = 3 mg/kg i.v., 4 h post carrageenan
[9] = 3 mg/kg i.v., 5 h post carrageenan
[10] = 3 mg/kg i.v., 6 h post carrageenan
[11] = 10 mg/kg i.v., 1 h post carrageenan
[12] = 10 mg/kg i.v., 2 h post carrageenan
[13] = 10 mg/kg i.v., 3 h post carrageenan
[14] = 10 mg/kg i.v., 4 h post carrageenan
[15] = 10 mg/kg i.v., 5 h post carrageenan
[16] = 10 mg/kg i.v., 6 h post carrageenan
[17] = 30 mg/kg i.v., 1 h post carrageenan
[18] = 30 mg/kg i.v., 2 h post carrageenan
[19] = 30 mg/kg i.v., 3 h post carrageenan
[20] = 30 mg/kg i.v., 4 h post carrageenan
[21] = 30 mg/kg i.v., 5 h post carrageenan
[22] = 30 mg/kg i.v., 6 h post carrageenan

Structure (SMILES)	kcat, catalytic rate constant for the decomposition of sodium peroxynitrite [1]	% Inhibition of Paw Edema [3, 5]	% Inhibition of Paw Edema [3, 6]	% Inhibition of Paw Edema [3, 7]	% Inhibition of Paw Edema [3, 8]	% Inhibition of Paw Edema [3, 9]	% Inhibition of Paw Edema [3, 10]	% Inhibition of Paw Edema [3, 11]	% Inhibition of Paw Edema [3, 12]	% Inhibition of Paw Edema [3, 13]	% Inhibition of Paw Edema [3, 14]	% Inhibition of Paw Edema [3, 15]	% Inhibition of Paw Edema [3, 16]	% Inhibition of Paw Edema [3, 17]	% Inhibition of Paw Edema [3, 18]	% Inhibition of Paw Edema [3, 19]	% Inhibition of Paw Edema [3, 20]	% Inhibition of Paw Edema [3, 21]	% Inhibition of Paw Edema [3, 22]	LPS-induced jejunal damage (histology) [4]	other results
CC(=O)[O-].C[n+]1ccc(-c2c3nc(c(-c4cc[n+](C)cc4)c4ccc([n-]4)c(-c4cc[n+](C)cc4)c4nc(c(-c5cc[n+](C)cc5)c5ccc2[n-]5)C=C4)C=C3)cc1.Cc1ccc(S(=O)(=O)[O-])cc1.Cc1ccc(S(=O)(=O)[O-])cc1.Cc1ccc(S(=O)(=O)[O-])cc1.Cc1ccc(S(=O)(=O)[O-])cc1.[Fe+3] [Fe(III)TMPyP, Acetato (5,10,15,20-tetrakis(N-methyl-4-pyridyl)porphinato) iron (III) tetra-tosylate]	2.75e+06 M⁻¹ s⁻¹	0%	9%	10%	17%	6%	0%	6%	13%	11%	28%	21%	2%	0%	44%	43%	50%	32%	32%	LPS-induced damage was less severe	inhibition of neutrophil-mediated injury to endothelial cells [2]: Inhibition of neutrophil-mediated injury to human aortic endothelial cells
CC(=O)[O-].Cc1c(-c2c3nc(c(-c4c(C)c(S(=O)(=O)[O-])c(C)c(S(=O)(=O)[O-])c4C)c4ccc([n-]4)c(-c4c(C)c(S(=O)(=O)[O-])c(C)c(S(=O)(=O)[O-])c4C)c4nc(c(-c5c(C)c(S(=O)(=O)[O-])c(C)c(S(=O)(=O)[O-])c5C)c5ccc2[n-]5)C=C4)C=C3)c(C)c(S(=O)(=O)[O-])c(C)c1S(=O)(=O)[O-].[Fe+3].[Na+].[Na+].[Na+].[Na+].[Na+].[Na+].[Na+].[Na+] [Fe(III)TMPS, Acetato-5,10,15,20-tetrakis(3,5-disulfonatomesityl)porphyrin Iron (III) octasodium salt]	160000 M⁻¹ s⁻¹	0%	42%	47%	47%	33%	33%	0%	61%	60%	53%	53%	47%	0%	85%	80%	80%	80%	81%	LPS-induced damage was less severe	
